Literature values in patent US20020112260A1, “Plants having resistance to multiple herbicides and its use” (Asgrow Seed Company LLC, priority 1997, published 2002).

Tested on: soybeans
Details: non-STS soybeans

For `COc1cc(Cl)nc(NC(=O)NS(=O)(=O)c2ccccc2C(=O)O)n1` [chlorimuron], the crop injury is given as “can cause significant crop injury”.
In the case of `COc1nc(C)nc(NC(=O)NS(=O)(=O)c2ccsc2C(=O)O)n1` [thifensulfuron], the crop injury is given as “can cause significant crop injury”.
